Assay results as given in patent publication US12263155B2, “Combinations of monoamine oxidase inhibitors and serotonin receptor agonists and their therapeutic use” (Remedi, Inc., priority 2022, dated 2025).

Experiments:
[1] = Plasma and brain CX157 concentrations after oral dosing in rats; conditions: rat; for Kp at 2 h / Kp at 4 h / Kp at 8 h / Kp at 18 h / Kp at 24 h / concentration at 0 h / concentration at 2 h / concentration at 4 h / concentration at 8 h / concentration at 18 h / concentration at 24 h: male, Sprague-Dawley, po
[2] = molecular target: T1, rat liver MAO-A (Rattus norvegicus, UniProt P21396); experiment: In vitro inhibition of rat liver MAO-A; type: biochemical
T1 construct: from tissue; host or cells: rat liver
T1 sequence (P21396 1-526): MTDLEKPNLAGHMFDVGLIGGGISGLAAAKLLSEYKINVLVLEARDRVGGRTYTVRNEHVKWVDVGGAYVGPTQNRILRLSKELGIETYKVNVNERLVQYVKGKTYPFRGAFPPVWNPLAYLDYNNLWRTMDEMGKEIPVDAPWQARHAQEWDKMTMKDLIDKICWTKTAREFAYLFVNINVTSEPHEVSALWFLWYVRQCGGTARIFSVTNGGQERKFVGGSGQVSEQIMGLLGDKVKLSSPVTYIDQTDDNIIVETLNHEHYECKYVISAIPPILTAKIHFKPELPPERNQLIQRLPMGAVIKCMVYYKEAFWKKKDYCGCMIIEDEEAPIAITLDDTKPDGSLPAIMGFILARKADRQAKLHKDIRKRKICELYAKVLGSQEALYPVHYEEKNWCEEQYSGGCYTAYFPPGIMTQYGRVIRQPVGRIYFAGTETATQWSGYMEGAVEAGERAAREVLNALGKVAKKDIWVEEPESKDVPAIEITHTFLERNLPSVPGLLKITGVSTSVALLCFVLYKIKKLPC
Procedure: […] The P2 fraction was prepared and was stored frozen until being thawed for use on the day of assay. Final concentrations of 50 μM [^14C]-serotonin (5-HT) and 10 μM [^14C]-phenylethylamine (PEA) were employed as specific substrates for MAO-A and MAO-B, respectively. Test compound inhibition was based on competition for oxidation of these radio-labeled substrates. MAO-A assay specificity was enhanced by inclusion of 0.1 μM deprenyl to prevent substrate oxidation by MAO-B. Likewise, MAO-B assays included 0.1 μM clorgyline to block MAO-A activity. […] Inhibition of enzymatic activities was expressed as IC50 and as the Ki, which was calculated using the Cheng-Prusoff equation.

[3] = brain and plasma, 5 mg/kg, mean brain/plasma ratio of CX157 concentrations, 5 mg/kg oral
[4] = brain and plasma, 10 mg/kg, mean brain/plasma ratio of CX157 concentrations, 10 mg/kg oral
[5] = brain/plasma, 1 mg/kg, mean brain/plasma ratio of CX157 concentrations, 1 mg/kg oral

O=S1(=O)c2ccc(F)cc2Oc2cc(OCC(F)(F)F)ccc21 [CX157, 3-fluoro-7(2,2,2-trifluorethoxy)phenoxathiine-10,10-dioxide]
Kp at 2 h [1, 3]: 2.5 | Kp at 4 h ([1]; brain and plasma, 5 mg/kg, mean brain/plasma ratio of CX157 concentrations, 5 mg/kg oral, 4 h): 2.2 | Kp at 8 h [1, 3]: 5 | Kp at 18 h [1, 3]: 3.7 | Kp at 24 h [1, 3]: 7.4 | Kp at 2 h [1, 4]: 3.1 | Kp at 4 h ([1]; brain and plasma, 10 mg/kg, mean brain/plasma ratio of CX157 concentrations, 10 mg/kg oral, 4 h): 1.9 | Kp at 8 h [1, 4]: 2.2 | Kp at 18 h [1, 4]: 7.2 | Kp at 24 h [1, 4]: 8.5 | concentration at 0 h ([1]; brain, 1 mg/kg): 0 ng/mL | concentration at 2 h ([1]; brain, 1 mg/kg): 103 ng/mL | concentration at 4 h ([1]; brain, 1 mg/kg): 71.7 ng/mL | concentration at 8 h ([1]; brain, 1 mg/kg): 76.5 ng/mL | concentration at 18 h ([1]; brain, 1 mg/kg): 17.3 ng/mL | concentration at 24 h ([1]; brain, 1 mg/kg): 13.2 ng/mL | concentration at 0 h ([1]; brain, 5 mg/kg): 0 ng/mL | concentration at 2 h ([1]; brain, 5 mg/kg): 447 ng/mL | concentration at 4 h ([1]; brain, 5 mg/kg): 386 ng/mL | concentration at 8 h ([1]; brain, 5 mg/kg): 535 ng/mL | concentration at 18 h ([1]; brain, 5 mg/kg): 140 ng/mL | concentration at 24 h ([1]; brain, 5 mg/kg): 85.8 ng/mL | concentration at 0 h ([1]; brain, 10 mg/kg): 0 ng/mL | concentration at 2 h ([1]; brain, 10 mg/kg): 387 ng/mL | concentration at 4 h ([1]; brain, 10 mg/kg): 513 ng/mL | concentration at 8 h ([1]; brain, 10 mg/kg): 540 ng/mL | concentration at 18 h ([1]; brain, 10 mg/kg): 56.6 ng/mL | concentration at 24 h ([1]; brain, 10 mg/kg): 86.6 ng/mL | Kp at 4 h ([1]; brain/plasma, 1 mg/kg, brain concentration higher than plasma concentration, e.g. 4 hours after a 1 mg/kg oral dose): ≤ 10 | Kp at 2 h [1, 5]: 7.4 | Kp at 4 h ([1]; brain/plasma, 1 mg/kg, mean brain/plasma ratio of CX157 concentrations, 1 mg/kg oral, 4 h): 10.3 | Kp at 8 h [1, 5]: 6.5 | Kp at 18 h [1, 5]: 5.7 | Kp at 24 h [1, 5]: 4.8 | concentration at 0 h ([1]; plasma, 1 mg/kg): 0 ng/mL | concentration at 2 h ([1]; plasma, 1 mg/kg): 20 ng/mL | concentration at 4 h ([1]; plasma, 1 mg/kg): 9.9 ng/mL | concentration at 8 h ([1]; plasma, 1 mg/kg): 13.4 ng/mL | concentration at 18 h ([1]; plasma, 1 mg/kg): 4.5 ng/mL | concentration at 24 h ([1]; plasma, 1 mg/kg): 3.2 ng/mL | concentration at 0 h ([1]; plasma, 5 mg/kg): 0 ng/mL | concentration at 2 h ([1]; plasma, 5 mg/kg): 184 ng/mL | concentration at 4 h ([1]; plasma, 5 mg/kg): 214 ng/mL | concentration at 8 h ([1]; plasma, 5 mg/kg): 189 ng/mL | concentration at 18 h ([1]; plasma, 5 mg/kg): 26.8 ng/mL | concentration at 24 h ([1]; plasma, 5 mg/kg): 14.3 ng/mL | concentration at 0 h ([1]; plasma, 10 mg/kg): 0 ng/mL | concentration at 2 h ([1]; plasma, 10 mg/kg): 158 ng/mL | concentration at 4 h ([1]; plasma, 10 mg/kg): 412 ng/mL | concentration at 8 h ([1]; plasma, 10 mg/kg): 257 ng/mL | concentration at 18 h ([1]; plasma, 10 mg/kg): 8.5 ng/mL | concentration at 24 h ([1]; plasma, 10 mg/kg): 5.4 ng/mL | blood-brain-barrier penetration ([1]; oral): penetrated the blood-brain-barrier | time of maximum plasma levels ([1]; oral 1, 5, 10 mg/kg): two to four hours | pharmacokinetic half-life in brain versus plasma ([1]; oral, particularly 10 mg/kg): longer pharmacokinetic half-life in the brain than in plasma | Ki for CX157/Ki for RO-41-1049 ([2]; Liver MAO-A): 0.126 | IC50 ([2]; rat liver, 50 μM [14C]-5-HT): 2.22 nM | Ki ([2]; rat liver, Cheng-Prusoff): 0.91 nM
